Data from patent US7598258B2, “Quinoline derivatives and quinazoline derivatives inhibiting autophosphorylation of macrophage colony stimulating factor receptor” (Kirin Beer Kabushiki Kaisha, priority 2002, dated 2009).

Experiments:
BAC-1.2F5 cell line = test: Inhibition of M-CSF-dependent cell growth of macrophage-like cell line BAC-1.2F5 (MTS); assay type: cell-based, mouse; settings: 72 hr, M-CSF 50 ng/ml, FIG. 1
Experimental: Macrophage-like cell line BAC-1.2F5 which expresses c-fms as a M-CSF receptor on cell membranes (CLAUDIA M. et al., J. Cell. Physiol., 130, 420-427 (1987), “Isolation and Characterization of a Cloned Growth Factor Dependent Macrophage Cell Line, BAC1.2F5”) was cultured at 37° C. in a DMEM medium containing L-cell supernatant and 10% fetal calf serum (purchased from GIBCO BRL) in a 5% CO2 incubator until about 50 to 70% confluent. The harvested cells were inoculated into wells, each containing a 10% fetal calf serum-containing DMEM medium with human recombinant M-CSF being added thereto to a final concentration of 50 ng/ml, in a 96-well flat-bottom plate at a density of 5.0×10^3 per well, and cultured at 37° C. for 24 hr. A test compound dissolved in dimethyl sulfoxide was then added to each well to a target concentration, and cells were incubated at 37° C. in a 5% CO2 incubator for 72 hr. Thereafter, 20 μl of an MTS reagent (purchased from Promega) was added to each well, followed by incubation at 37° C. in a 5% CO2 incubator for 2 hr. Thereafter, absorbance at 490 nm was measured with a microplate reader. The cell growth rate with the addition of the test compound was determined by presuming the absorbance without the addition of the test compound and with the addition of M-CSF to be 100% cell growth and the absorbance without the addition of the test compound and M-CSF to be 0% cell growth. The concentration of the test compound was varied on several levels, and the cell growth rate in each case was calculated.

[1] = system: bone metastasis of A375 human melanoma cells; test: Nude mouse bone metastasis model using human melanoma cells (A375); assay type: in vivo, nude mice; settings: oral 40 mg/kg/day (20 mg twice a day), 28 days, p<0.01 vs. vehicle control, FIG. 3
Experimental: From the next day of the transplantation, for 28 days twice a day, the test compound was orally administered to the treatment group at 40 mg/kg/day, and the medium was orally administered to the control group. On 21 and 28 days after the transplantation, the mice were radiographed. For the images thus obtained, the bone resorption pore area in femora and fibiae attributable to bone metastasis of melanoma in each individual were calculated with an image analysis software (Image Gauge, FUJI FILM) to determine the average value for each group. The drug efficacy was evaluated by comparing the area of the test compound administered group with the area of the control group.

## COc1cc(Oc2ccnc3cc(OC)c(OC)cc23)ccc1NC(=O)NC(C)c1nccs1 (centres unmarked) [Example 74, N-{4-[(6,7-Dimethoxy-4-quinolyl)oxy]-2-methoxyphenyl}-N′-[1-(1,3-thiazol-2-yl)ethyl]urea]
BAC-1.2F5 cell line
  inhibition of M-CSF-dependent cell growth of BAC-1.2F5: concentration-dependent inhibition
[1]
  inhibition of expansion of bone resorption area involved in bone metastasis of melanoma: inhibiting the expansion of bone resorption area
